# Experimental data as given in ChEMBL document CHEMBL4152282, “Synthesis and photodynamic activities of integrin-targeting silicon(IV) phthalocyanine-cRGD conjugates” (Eur J Med Chem, 2018).
# How the values were obtained:
# [1] = Aggregation behavior of compound in DMF by UV-vis absorption spectra analysis; type: physicochemical
# [2] = Photostability in DMF assessed as release of singlet oxygen at 4 uM preincubated with DPBF in dark followed by irradiation with red light by DPBF decay assay; type: functional
# HT-29 [3] = assay: Photocytotoxicity against human HT-29 cells with high expression of alphaVbeta3 integrin assessed as decrease in cell viability preincubated for 2 hrs followed by red light irradiation and measured after overnight incubation by MTT assay; type: functional, cell-based; details: HT-29, light or radiation study
# HT-29 [4] = assay: Photocytotoxicity against human HT-29 cells with high expression of alphaVbeta3 integrin assessed as decrease in cell viability preincubated for 24 hrs followed by red light irradiation and measured after overnight incubation by MTT assay; type: functional, cell-based; details: HT-29, light or radiation study
# MCF7 [5] = assay: Photocytotoxicity against human MCF7 cells with low expression of alphaVbeta3 integrin assessed as decrease in cell viability preincubated for 2 hrs followed by red light irradiation and measured after overnight incubation by MTT assay; type: functional, cell-based; details: MCF7, light or radiation study
# MCF7 [6] = assay: Photocytotoxicity against human MCF7 cells with low expression of alphaVbeta3 integrin assessed as decrease in cell viability preincubated for 24 hrs followed by red light irradiation and measured after overnight incubation by MTT assay; type: functional, cell-based; details: MCF7, light or radiation study
# [7] = Selectivity ratio of IC50 for human MCF7 cells with low expression of alphaVbeta3 integrin to IC50 for human HT-29 cells with high expression of alphaVbeta3 integrin preincubated for 2 hrs followed by red light irradiation and measured after overnight incubation by MTT assay; type: functional
# [8] = Selectivity ratio of IC50 for human MCF7 cells with low expression of alphaVbeta3 integrin to IC50 for human HT-29 cells with high expression of alphaVbeta3 integrin preincubated for 24 hrs followed by red light irradiation and measured after overnight incubation by MTT assay; type: functional
# [9] = Aggregation behavior of compound in RPMI 1640 medium with 0.05% cremophor EL at 3 uM by UV-vis absorption spectra analysis; type: physicochemical
# [10] = Aggregation behavior of compound in DMF at 1 to 6 uM by UV-vis absorption spectra analysis; type: physicochemical
# [11] = Aggregation behavior of compound in water at 3 uM by UV-vis absorption spectra analysis; type: physicochemical; details: buffer
# [12] = Drug uptake in human HT-29 cells at 1 uM after 2 to 24 hrs by confocal laser scanning microscopic method; type: ADME, cell-based; details: ht-29, 1 µM
# [13] = Drug uptake in lysosome of human HT-29 cells at 1 uM incubated for 0.5 hrs by Lyso Tracker red dye-based confocal laser scanning microscopic method; type: ADME, subcellular; details: ht-29, 0.5 h
# [14] = Drug uptake in mitochondria of human HT-29 cells at 1 uM incubated for 0.5 hrs by Mito Tracker green dye-based confocal laser scanning microscopic method; type: ADME; details: ht-29, 0.5 h
# Mus musculus = assay: Drug uptake in KM mouse xenografted with […] cells at 0.5 nmol/g, iv measured up to 24 hrs by fluorescence imaging method; type: ADME, organism-based; details: in vivo
# [15] = Drug uptake in tumor of KM mouse xenografted with […] cells expressing integrin at 0.5 nmol/g, iv measured after 24 hrs by fluorescence imaging method; type: ADME, organism-based, Neoplasm; details: in vivo
# [16] = Drug uptake in heart of KM mouse xenografted with […] cells expressing integrin at 0.5 nmol/g, iv measured after 24 hrs by fluorescence imaging method; type: ADME, organism-based; details: in vivo
# [17] = Drug uptake in liver of KM mouse xenografted with […] cells expressing integrin at 0.5 nmol/g, iv measured after 24 hrs by fluorescence imaging method; type: ADME, organism-based; details: in vivo
# [18] = Drug uptake in spleen of KM mouse xenografted with […] cells expressing integrin at 0.5 nmol/g, iv measured after 24 hrs by fluorescence imaging method; type: ADME, organism-based; details: in vivo
# [19] = Drug uptake in lung of KM mouse xenografted with […] cells expressing integrin at 0.5 nmol/g, iv measured after 24 hrs by fluorescence imaging method; type: ADME, organism-based; details: in vivo
# [20] = Drug uptake in kidney of KM mouse xenografted with […] cells expressing integrin at 0.5 nmol/g, iv measured after 24 hrs by fluorescence imaging method; type: ADME, organism-based; details: in vivo
# [21] = Drug uptake in skin of KM mouse xenografted with […] cells expressing integrin at 0.5 nmol/g, iv measured after 24 hrs by fluorescence imaging method; type: ADME, organism-based, Zone of skin; details: in vivo
smiles,measurement,setting,value
[N-]=[N+]=NCCOCCOCCOCCO[Si]1(OCCOCCOCCOCCO)n2c3c4ccccc4c2/N=C2N=C(/N=c4/c5ccccc5/c(n41)=N/C1=NC(=N\3)/c3ccccc31)c1ccccc1\2 (stereo not drawn),Activity,[1],Not Active
same,Stability,[2],Unstable
same,IC50,HT-29 [3],2.6 nM
same,IC50,HT-29 [4],1.4 nM
same,IC50,MCF7 [5],2.7 nM
same,IC50,MCF7 [6],1.7 nM
same,Ratio IC50,[7],1.04
same,Ratio IC50,[8],1.21
[N-]=[N+]=NCCOCCOCCO[Si]1(OCCOCCOCCN=[N+]=[N-])n2c3c4ccccc4c2/N=C2N=C(/N=c4/c5ccccc5/c(n41)=N/C1=NC(=N\3)/c3ccccc31)c1ccccc1\2 (stereo not drawn),Activity,[1],Not Active
same,Stability,[2],Unstable
same,IC50,HT-29 [3],8.6 nM
same,IC50,HT-29 [4],7.9 nM
same,IC50,MCF7 [5],12 nM
same,IC50,MCF7 [6],11 nM
same,Ratio IC50,[7],1.4
same,Ratio IC50,[8],1.39
OCCOCCO[Si]1(OCCOCCO)n2c3c4ccccc4c2/N=C2N=C(/N=c4/c5ccccc5/c(n41)=N/C1=NC(=N\3)/c3ccccc31)c1ccccc1\2,Activity,[1],Not Active
same,Stability,[2],Unstable
same,IC50,HT-29 [3],1.2 nM
same,IC50,HT-29 [4],0.8 nM
same,IC50,MCF7 [5],1 nM
same,IC50,MCF7 [6],0.9 nM
same,Ratio IC50,[7],0.83
same,Ratio IC50,[8],1.13
OCCOCCOCCOCCO[Si]1(OCCOCCOCCOCCO)n2c3c4ccccc4c2/N=C2N=C(/N=c4/c5ccccc5/c(n41)=N/C1=NC(=N\3)/c3ccccc31)c1ccccc1\2,Activity,[1],Not Active
same,Stability,[2],Unstable
same,IC50,HT-29 [3],0.2 nM
same,IC50,HT-29 [4],0.2 nM
same,IC50,MCF7 [5],0.2 nM
same,IC50,MCF7 [6],0.2 nM
same,Ratio IC50,[7],1
same,Ratio IC50,[8],1
N=C(N)NCCC[C@@H]1NC(=O)[C@H](Cc2cn(CCOCCOCCO[Si]3(OCCOCCOCCO)n4c5c6ccccc6c4/N=C4N=C(/N=c6/c7ccccc7/c(n63)=N/C3=NC(=N\5)/c5ccccc53)c3ccccc3\4)nn2)NC(=O)[C@@H](Cc2ccccc2)NC(=O)[C@H](CC(=O)O)NC(=O)CNC1=O (stereo partly drawn),Activity,[9],Not Active
same,Activity,[10],Not Active
same,Stability,[2],Unstable
same,Activity,[11],Not Active
same,IC50,HT-29 [3],32 nM
same,IC50,HT-29 [4],26 nM
same,IC50,MCF7 [5],39 nM
same,IC50,MCF7 [6],26 nM
same,Ratio IC50,[7],1.22
same,Ratio IC50,[8],1
[N-]=[N+]=NCCOCCOCCOCCO[Si]1(OCCOCCOCCOCCN=[N+]=[N-])n2c3c4ccccc4c2/N=C2N=C(/N=c4/c5ccccc5/c(n41)=N/C1=NC(=N\3)/c3ccccc31)c1ccccc1\2 (stereo not drawn),Activity,[1],Not Active
same,Stability,[2],Unstable
same,IC50,HT-29 [3],6.3 nM
same,IC50,HT-29 [4],3.9 nM
same,IC50,MCF7 [5],6.5 nM
same,IC50,MCF7 [6],4 nM
same,Ratio IC50,[7],1.03
same,Ratio IC50,[8],1.03
N=C(N)NCCC[C@@H]1NC(=O)[C@H](Cc2cn(CCOCCO[Si]3(OCCOCCO)n4c5c6ccccc6c4/N=C4N=C(/N=c6/c7ccccc7/c(n63)=N/C3=NC(=N\5)/c5ccccc53)c3ccccc3\4)nn2)NC(=O)[C@@H](Cc2ccccc2)NC(=O)[C@H](CC(=O)O)NC(=O)CNC1=O (stereo partly drawn),Activity,[9],Not Active
same,Activity,[10],Not Active
same,Stability,[2],Unstable
same,Activity,[11],Not Active
same,IC50,HT-29 [3],33 nM
same,IC50,HT-29 [4],35 nM
same,IC50,MCF7 [5],33 nM
same,IC50,MCF7 [6],39 nM
same,Ratio IC50,[7],1
same,Ratio IC50,[8],1.11
N=C(N)NCCC[C@@H]1NC(=O)[C@H](Cc2cn(CCOCCOCCOCCO[Si]3(OCCOCCOCCOCCO)n4c5c6ccccc6c4/N=C4N=C(/N=c6/c7ccccc7/c(n63)=N/C3=NC(=N\5)/c5ccccc53)c3ccccc3\4)nn2)NC(=O)[C@@H](Cc2ccccc2)NC(=O)[C@H](CC(=O)O)NC(=O)CNC1=O (stereo partly drawn),Activity,[9],Not Active
same,Activity,[10],Not Active
same,Stability,[2],Unstable
same,Activity,[11],Not Active
same,IC50,HT-29 [3],32 nM
same,IC50,HT-29 [4],32 nM
same,IC50,MCF7 [5],35 nM
same,IC50,MCF7 [6],33 nM
same,Ratio IC50,[7],1.09
same,Ratio IC50,[8],1.03
[N-]=[N+]=NCCOCCOCCO[Si]1(OCCOCCOCCO)n2c3c4ccccc4c2/N=C2N=C(/N=c4/c5ccccc5/c(n41)=N/C1=NC(=N\3)/c3ccccc31)c1ccccc1\2 (stereo not drawn),Activity,[1],Not Active
same,Stability,[2],Unstable
same,IC50,HT-29 [3],3 nM
same,IC50,HT-29 [4],1.7 nM
same,IC50,MCF7 [5],2.5 nM
same,IC50,MCF7 [6],1.3 nM
same,Ratio IC50,[7],0.83
same,Ratio IC50,[8],0.76
[N-]=[N+]=NCCOCCO[Si]1(OCCOCCN=[N+]=[N-])n2c3c4ccccc4c2/N=C2N=C(/N=c4/c5ccccc5/c(n41)=N/C1=NC(=N\3)/c3ccccc31)c1ccccc1\2 (stereo not drawn),Activity,[1],Active
same,Stability,[2],Unstable
same,IC50,HT-29 [3],12 nM
same,IC50,HT-29 [4],7.1 nM
same,IC50,MCF7 [5],12 nM
same,IC50,MCF7 [6],4.4 nM
same,Ratio IC50,[7],1
same,Ratio IC50,[8],0.62
[N-]=[N+]=NCCOCCO[Si]1(OCCOCCO)n2c3c4ccccc4c2/N=C2N=C(/N=c4/c5ccccc5/c(n41)=N/C1=NC(=N\3)/c3ccccc31)c1ccccc1\2 (stereo not drawn),Activity,[1],Not Active
same,Stability,[2],Unstable
same,IC50,HT-29 [3],3.2 nM
same,IC50,HT-29 [4],2.2 nM
same,IC50,MCF7 [5],3.7 nM
same,IC50,MCF7 [6],2.6 nM
same,Ratio IC50,[7],1.15
same,Ratio IC50,[8],1.18
N=C(N)NCCC[C@@H]1NC(=O)[C@H](Cc2cn(CCOCCOCCOCCO[Si]3(OCCOCCOCCOCCn4cc(C[C@@H]5NC(=O)[C@@H](Cc6ccccc6)NC(=O)[C@H](CC(=O)O)NC(=O)CNC(=O)[C@H](CCCNC(=N)N)NC5=O)nn4)n4c5c6ccccc6c4/N=C4N=C(/N=c6/c7ccccc7/c(n63)=N/C3=NC(=N\5)/c5ccccc53)c3ccccc3\4)nn2)NC(=O)[C@@H](Cc2ccccc2)NC(=O)[C@H](CC(=O)O)NC(=O)CNC1=O (stereo partly drawn),Activity,[9],Not Active
same,Activity,[10],Not Active
same,Stability,[2],Unstable
same,Activity,[11],Not Active
same,IC50,HT-29 [3],19 nM
same,IC50,HT-29 [4],13 nM
same,IC50,MCF7 [5],32 nM
same,IC50,MCF7 [6],32 nM
same,Ratio IC50,[7],1.68
same,Ratio IC50,[8],2.46
OCCOCCOCCO[Si]1(OCCOCCOCCO)n2c3c4ccccc4c2/N=C2N=C(/N=c4/c5ccccc5/c(n41)=N/C1=NC(=N\3)/c3ccccc31)c1ccccc1\2,Activity,[1],Not Active
same,Stability,[2],Unstable
same,IC50,HT-29 [3],0.3 nM
same,IC50,HT-29 [4],0.3 nM
same,IC50,MCF7 [5],0.3 nM
same,IC50,MCF7 [6],0.3 nM
same,Ratio IC50,[7],1
same,Ratio IC50,[8],1
same,Drug uptake,[12],Active
same,Drug uptake,[13],Active
same,Drug uptake,[14],Active
same,Drug uptake,Mus musculus,Not Active
same,Drug uptake,[15],Not Active
same,Drug uptake,[16],Not Active
same,Drug uptake,[17],Not Active
same,Drug uptake,[18],Not Active
same,Drug uptake,[19],Not Active
same,Drug uptake,[20],Not Active
same,Drug uptake,[21],Not Active
N=C(N)NCCC[C@@H]1NC(=O)[C@H](Cc2cn(CCOCCO[Si]3(OCCOCCn4cc(C[C@@H]5NC(=O)[C@@H](Cc6ccccc6)NC(=O)[C@H](CC(=O)O)NC(=O)CNC(=O)[C@H](CCCNC(=N)N)NC5=O)nn4)n4c5c6ccccc6c4/N=C4N=C(/N=c6/c7ccccc7/c(n63)=N/C3=NC(=N\5)/c5ccccc53)c3ccccc3\4)nn2)NC(=O)[C@@H](Cc2ccccc2)NC(=O)[C@H](CC(=O)O)NC(=O)CNC1=O (stereo partly drawn),Activity,[9],Not Active
same,Activity,[10],Not Active
same,Stability,[2],Unstable
same,Activity,[11],Not Active
same,IC50,HT-29 [3],22 nM
same,IC50,HT-29 [4],14 nM
same,IC50,MCF7 [5],38 nM
same,IC50,MCF7 [6],23 nM
same,Ratio IC50,[7],1.73
same,Ratio IC50,[8],1.64
